Results as given in patent US12503452B2 (Curza Global, LLC, priority 2019, dated 2025).
Structures can show the parent of a compound that is named as a salt. Where two headings read alike, the source gives them in different places.

Assays:
[1] = tested on: A. baumannii (Ab); assay: Broth microdilution minimum inhibitory concentration (MIC); type: cell-based; conditions: Acinetobacter baumannii, A. baumannii, read-out: Ab + bicarb MIC
Procedure: (§1) A certified BSL-2 laboratory was used for testing. Compounds were evaluated using the broth microdilution minimum inhibitory concentration (MIC) and minimum bactericidal concentration (MBC) assays defined by Clinical and Laboratory Standards Institute (CLSI) in the M26-A guideline against S. aureus (Sa), E. coli (Ec), K. pneumoniae (Kp), A. baumannii (Ab), E. faecalis (Ef) and P. aeruginosa (Pa).
(§2) MICs were determined using the Clinical Laboratory and Standards Institute (CLSI) Broth Microdilution Method with slight modification. Clinical and Laboratory Standards Institute (2012). “Methods for dilution antimicrobial susceptibility tests for bacteria that grow aerobically; approved standard, 9th ed. M07-A9. Clinical and Laboratory Standards Institute, Wayne, PA” Serial two-fold dilutions of compounds are prepared in sterile clear round-bottom 96-well plates.
(§3) To prepare microdilution trays, two-fold dilutions of antimicrobial agent are prepared in growth medium: Cation-Adjusted Mueller-Hinton Broth (CAMHB), or CAMHB supplemented with sodium bicarbonate (6.25 or 25 mM final concentration prepared from a 1.0M stock solution) or CAMHB supplemented with heat inactivated human serum (Fisher Cat. #BP2657100) 0-50% by adding 200 μL of the highest concentration to be tested (64 μg/mL, for example) in row A, mixing and transferring 100 μL from row A to 100 μL growth medium in row B, then repeating the mixing and transferring through row H of the 96-well plate, discarding the excess 100 μL remaining. This slight modification to the CLSI protocol enables evaluation of MICs for 3 compounds per plate in triplicate, albeit with only 8 compound dilutions (CLSI protocol enables 2 compounds in triplicate with 10 dilutions). Bacterial suspensions are added to a final concentration of 5×10^4 CFU/well by adding 5 μL of a 1:10 dilution of a 0.5 McFarland suspension (1×10^8 CFU/mL) for each bacterium evaluated. Bacterial suspensions were prepared using the growth method described by CLSI. Well-isolated colonies (3-5 from an agar plate) were selected using a sterile loop and used to inoculate a tube containing 4 mL of CAMHB. The cultures are incubated at 35±2° C. until it achieves or exceeds the turbidity of the 0.5 McFarland standard, determined by measuring A600nm (usually two to six hours). When growth exceeds a 0.5 McFarland standard, the turbidity is adjusted with broth to be equivalent to a 0.5 McFarland standard.

[2] = tested on: E. faecalis (Ef); assay: as above; type: cell-based; conditions: Enterococcus faecalis, read-out: Ef + bicarb MIC
Procedure: as §1, §2, §3

[3] = tested on: S. aureus (Sa); assay: as above; type: cell-based; conditions: Staphylococcus aureus, read-out: Sa + bicarb MIC
Procedure: as §1, §2, §3

[4] = tested on: E. coli (Ec); assay: as above; type: cell-based; conditions: Escherichia coli, read-out: E. coli + bicarb MIC
Procedure: as §1, §2, §3

[5] = tested on: P. aeruginosa (Pa); assay: as above; type: cell-based; conditions: Pseudomonas aeruginosa, read-out: Pa MIC + bicarb
Procedure: as §1, §2, §3

[6] = tested on: E. coli S30 extract (bacterial protein synthesis); assay: E. coli S30 extract coupled transcription-translation luciferase assay (inhibition of bacterial protein synthesis); type: biochemical; conditions: read-out: S30 IC50 (μM/% inhib.)
In short: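 Cell-free coupled transcription-translation in E. coli S30 circular-DNA extract, with pBESTluc plasmid as template and complete amino acid mix. Eight 2-fold compound dilutions were incubated with the extract 1 h at 37 °C, chilled, then luciferase luminescence was read. % inhibition was taken relative to no-inhibitor wells; no-DNA wells gave background.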

[7] = target: Rabbit Reticulocyte Lysate (eukaryotic protein synthesis); assay: Rabbit reticulocyte lysate luciferase assay (inhibition of eukaryotic protein synthesis); type: biochemical; conditions: read-out: Rabbit reticulocyte IC50 (μM/% inhib.)
In short: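 Nuclease-treated rabbit reticulocyte lysate translating luciferase control RNA, with complete amino acids, was incubated at 30° C. for 90 minutes with 2-fold serial compound dilutions. Luminescence was measured after adding luciferase reagent. % inhibition was relative to water controls, with no-RNA wells as background.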

[8] = growth medium with sodium bicarbonate
[9] = E. faecalis, growth medium with sodium bicarbonate
[10] = E. coli, growth medium with sodium bicarbonate
[11] = P. aeruginosa, growth medium with sodium bicarbonate
[12] = class by IC50 or % inhibition @ 1 μM
[13] = growth medium supplemented with sodium bicarbonate
[14] = E. coli, growth medium supplemented with sodium bicarbonate
[15] = P. aeruginosa, growth medium supplemented with sodium bicarbonate
[16] = E. faecalis, growth medium supplemented with sodium bicarbonate
[17] = S. aureus, growth medium supplemented with sodium bicarbonate

Structure (SMILES) | IC50 [6, 12] [µM] | IC50 [7, 12] [µM] | MIC [1, 13] [µg/mL] | MIC [4, 14] [µg/mL] | MIC [5, 15] [µg/mL] | MIC [2, 16] [µg/mL] | also measured
CC(CN1CC(N)C1)Oc1ccc(-n2ccc(NC(=O)N3CCN(C(=O)C(C)(C)N)CC3)nc2=O)cc1 (stereo not shown) [Compound 182] | > 1 | > 1 |  |  |  |  | MIC [1, 8]: > 32 µg/mL; MIC [2, 9]: > 32 µg/mL; MIC ([3]; S. aureus, growth medium with sodium bicarbonate): > 32 µg/mL; MIC [4, 10]: 8 to 32 µg/mL; MIC [5, 11]: > 32 µg/mL
NC1CCN(Cc2ccc(-n3ccc(NC(=O)N4CC(N)C4)nc3=O)cc2)CC1 [Compound 49] | > 1 | > 1 | > 32 | > 32 | > 32 |  | 
CC(C)(N)C(=O)N1CCN(C(=O)Nc2ccn(-c3ccc(CCNC4CCCNCC4)cc3)c(=O)n2)CC1 (stereo not shown) [Compound 30] | < 0.5 | > 1 | > 32 | < 8 | > 32 | > 32 | MIC [3, 17]: < 8 µg/mL
C[C@H]1CN(Cc2ccc(-n3ccc(NC(=O)N4CCN(C(=O)C(C)(C)N)CC4)nc3=O)cc2)CC[C@H]1N (stereo in doubt) [Compound 297, hydrochloride salt] | 0.5 to 1 | > 1 |  |  |  |  | MIC [2]: 8 to 32 µg/mL; MIC [3]: < 8 µg/mL; MIC [4]: < 8 µg/mL; MIC [5]: > 32 µg/mL
Cc1cc(-n2ccc(NC(=O)N3CCN(C(=O)C(C)(C)N)CC3)nc2=O)ccc1CN1CCC(N)CC1 [Compound 91] | < 0.5 | > 1 | > 32 | < 8 | > 32 | < 8 | 
C[C@@H]1CN(C(=O)[C@@](C)(N)CO)CCN1C(=O)Nc1ccn(-c2ccc(CN3CCC(N)CC3)cc2)c(=O)n1 [Compound 89] | < 0.5 | > 1 | > 32 |  |  | > 32 | 
CC(N)[C@@H]1CCN(Cc2ccc(-n3ccc(NC(=O)N4CCN(C(=O)C(C)(C)N)CC4)nc3=O)cc2)C1 (stereo partly shown) [Compound 44] | < 0.5 | > 1 | > 32 |  |  | < 8 | 
C[C@](N)(CO)C(=O)N1CCN(C(=O)Nc2ccn(-c3ccc(CN4CCC(N)CC4)c(Cl)c3)c(=O)n2)CC1 [Compound 98] | < 0.5 | > 1 |  | < 8 | > 32 |  | MIC [3, 17]: < 8 µg/mL
C[C@](N)(CO)C(=O)N1CCN(C(=O)Nc2ccn(-c3ccc(CCN4CCC(NC(=N)N)CC4)cc3)c(=O)n2)CC1 [Compound 349, hydrochloride salt] |  |  |  |  |  |  | MIC [3]: 8 to 32 µg/mL; MIC [4]: < 8 µg/mL; IC50 ([6]; % inhibition @ 1 μM): < 0.5 µM; IC50 ([7]; % inhibition @ 1 μM): 0.5 to 1 µM
CC(C)(N)C(=O)N1C2COCC1CN(C(=O)Nc1ccn(-c3ccc(CN4CCC(N)CC4)cc3)c(=O)n1)C2 [Compound 68] | 0.5 to 1 | > 1 |  | < 8 | > 32 |  | MIC [3, 17]: > 32 µg/mL
CC1CN(Cc2ccc(-n3ccc(NC(=O)N4CCN(C(=O)[C@@](C)(N)CO)CC4)nc3=O)cc2)CCC1N (stereo partly shown) [Compound 223] | 0.5 to 1 | > 1 |  |  |  |  | MIC [1, 8]: > 32 µg/mL; MIC [2, 9]: < 8 µg/mL; MIC [4, 10]: < 8 µg/mL; MIC [5, 11]: > 32 µg/mL
C[C@@H]1CN(CCc2ccc(-n3ccc(NC(=O)N4CCN(C(=O)C(C)(C)N)CC4)nc3=O)cc2)CC[C@H]1N [Compound 41] | < 0.5 | > 1 | > 32 |  |  | 8 to 32 | 
C[C@](N)(CO)C(=O)N1CCN(C(=O)Nc2ccn(-c3ccc(CCN4CCC[C@@H](N)C4)cc3)c(=O)n2)CC1 [Compound 12] | 0.5 to 1 | > 1 | > 32 | > 32 | > 32 |  | 
CC(C)(N)C(=O)N1CCN(C(=O)Nc2ccn(-c3ccc(CN4CCC(N)CC4)cc3)c(=O)n2)C(c2ccccc2)C1 (stereo not shown) [Compound 59] | > 1 | > 1 | > 32 | > 32 | > 32 |  | 
CC(N)[C@H]1CCN(CCc2ccc(-n3ccc(NC(=O)N4CCN(C(=O)C(C)(C)N)CC4)nc3=O)cc2)C1 (stereo partly shown) [Compound 42] | < 0.5 | > 1 | > 32 | < 8 | 8 to 32 | 8 to 32 | 
CC(C)(N)C(=O)N1CCN(C(=O)Nc2ccn(-c3ccc(CNCC4(O)CNC4)cc3)c(=O)n2)CC1 [Compound 376] |  |  |  |  |  |  | MIC [1, 8]: > 32 µg/mL; MIC [4, 10]: < 8 µg/mL; MIC [5, 11]: > 32 µg/mL; IC50 ([6]; % inhibition @ 1 μM): < 0.5 µM; IC50 ([7]; % inhibition @ 1 μM): > 1 µM
CC(N)C1CCCN(Cc2ccc(-n3ccc(NC(=O)N4CCN(C(=O)C(C)(C)N)CC4)nc3=O)cc2)C1 (stereo not shown) [Compound 109] | < 0.5 | > 1 |  | < 8 | > 32 |  | MIC [3, 17]: < 8 µg/mL
C[C@@H]1CN(C(=O)Nc2ccn(-c3ccc(CN4CCC(N)CC4)cc3)c(=O)n2)[C@@H](C)CN1C(=O)C(C)(C)N [Compound 74] |  | > 1 | > 32 | > 32 | > 32 |  | 
CC(C)(N)C(=O)N1CCN(C(=O)Nc2ccn(-c3ccc(CN4CC(CCN)C4)cc3)c(=O)n2)CC1 [Compound 134] | < 0.5 | > 1 | > 32 | < 8 | > 32 | 8 to 32 | 
CC(C)(N)C(=O)N1CC2COCC(C1)N2C(=O)Nc1ccn(-c2ccc(CN3CCC(N)CC3)cc2)c(=O)n1 [Compound 85] | > 1 | > 1 |  | < 8 | > 32 |  | MIC [3, 17]: > 32 µg/mL
CC(N)[C@@H]1CCN(CCc2ccc(-n3ccc(NC(=O)N4CCN(C(=O)C(C)(C)N)CC4)nc3=O)cc2)C1 (stereo partly shown) [Compound 43] | < 0.5 | > 1 | > 32 | < 8 | 8 to 32 | 8 to 32 | 
CC(N)C1CCN(CCc2ccc(-n3ccc(NC(=O)N4CCN(C(=O)C(C)(C)N)CC4)nc3=O)cc2)CC1 (stereo not shown) [Compound 168] | < 0.5 | > 1 |  |  |  |  | MIC [1, 8]: > 32 µg/mL; MIC [2, 9]: 8 to 32 µg/mL
CC(N)C1CCCN(CCc2ccc(-n3ccc(NC(=O)N4CCN(C(=O)C(C)(C)N)CC4)nc3=O)cc2)C1 (stereo not shown) [Compound 22] | < 0.5 | > 1 |  | < 8 | > 32 |  | MIC [3, 17]: < 8 µg/mL
CC(C)(N)C(=O)N1CCN(C(=O)Nc2ccn(-c3ccc(CN4CC(CN)C4)cc3)c(=O)n2)CC1 [Compound 133] | < 0.5 | > 1 | > 32 |  |  | > 32 | 
C[C@](N)(CO)C(=O)N1CCN(C(=O)Nc2ccn(-c3cc(CN4CCC(N)CC4)cc(OC(F)(F)F)c3)c(=O)n2)CC1 [Compound 103] | > 1 | > 1 | > 32 | > 32 |  |  | 
CC(N)[C@H]1CCN(Cc2ccc(-n3ccc(NC(=O)N4CCN(C(=O)C(C)(C)N)CC4)nc3=O)cc2)C1 (stereo partly shown) [Compound 45] | < 0.5 | > 1 | > 32 |  |  | < 8 | 
CNC(C)(C)C(=O)N1CCN(C(=O)Nc2ccn(-c3ccc(CN4CCC(N)CC4)cc3)c(=O)n2)CC1 [Compound 96] | > 1 | > 1 |  | < 8 | > 32 |  | MIC [3, 17]: < 8 µg/mL
